# In paper PMC11073428, “The activity of pyrazolo[4,3-e][1,2,4]triazine and pyrazolo[4,3-e]tetrazolo[1,5-b][1,2,4]triazine sulphonamide derivatives in monolayer and spheroid breast cancer cell cultures” (Journal of Enzyme Inhibition and Medicinal Chemistry, 2024):
# Tests used:
# in vitro = conditions: human
# [1] = system: MCF-7 breast cancer cells; assay: MTT viability assay, MCF-7
# Protocol: (§7) Following 24-h incubation with tested compounds, the medium was discarded from the cell cultures. Then, into each well with cells was added 1 mL of PBS and 50 µL of MTT solution (5 mg per mL). Cells were incubated at 37 °C and 5% CO2 in humidified atmosphere for a defined time appropriate for each cell line. After incubation, the solution above the cells was removed and obtained purple formazan crystals were dissolved in 1 mL DMSO. The absorbance was read at OD = 570 nm on Evolution 201 Spectrophotometer (Thermo Scientific, Waltham, MA).
# [2] = system: caspase 10 in MDA-MB-231 cells; assay: Activity of caspase 10, MDA-MB-231; assay type: cell-based, human; conditions: 24 h
# Protocol: (§1) MCF-7 and MDA-MB-231 cells were plated in six-well plates at density 1 × 10^6 and cultured in DMEM for 24 h. […] Then to identify the involvement of caspase family in inducing apoptosis, cells were pre-treated with Z-VAD-FMK (100 µM) 2 h before adding compounds[28]. The activation of caspases 9, 10, and 3/7 was detected as described before.
# [3] = system: caspase 10 in MCF-7 cells; assay: Activity of caspase 10, MCF-7; assay type: cell-based, human; conditions: 24 h
# Protocol: as §1
# [4] = system: caspase 9 in MDA-MB-231 cells; assay: Activity of caspase 9, MDA-MB-231; assay type: cell-based, human; conditions: MDA-MB-231, 0.5 µM, 24 h
# Protocol: as §1
# [5] = system: caspase 3/7 in MCF-7 cells; assay: Activity of caspase 3/7, MCF-7; assay type: cell-based, human; conditions: MCF-7, 24 h; cell line does not express caspase 3
# Protocol: as §1
# caspase 9 in MCF-7 cells = assay: Activity of caspase 9, MCF-7; assay type: cell-based, human; conditions: MCF-7, 0.5 µM, 24 h
# Protocol: as §1
# [6] = system: MDA-MB-231 breast cancer cells; assay: MTT viability assay, MDA-MB-231
# Protocol: as §7
# ROS in MCF-7 cells = assay: Total ROS activity, flow cytometry, MCF-7; assay type: cell-based, human; conditions: for cells that generated ROS: 24 h
# Protocol: (§2) In brief, cells were washed two times with cold PBS solution and incubated in a solution of ROS Green dye in Assay Buffer and incubated for 1 h in optimal cell growth parameters, protected from light. After incubation, cells were washed with assay buffer. Subsequently, fluorescence emission intensities at 490 nm excitation and 520 nm emission were recorded in 500 μL assay buffer using flow cytometer BD FACSCanto II flow cytometer and FACSDiva software (BD Biosciences Systems, San Jose, CA).
# Bax in MCF-7 cells = assay: Anti-Bax antibody flow cytometry, MCF-7; assay type: cell-based, human; conditions: 24 h
# Protocol: (§3) To evaluate the molecular mechanism of induction of apoptosis of tested compounds, the level of p53, NF-κB, mTOR, Bax, and beclin-1 was measured using appropriate antibody according to the manufacturer’s instruction. In brief, tryspinised cells were centrifuged, then supernatant was discarded, and cells were suspended in 4% FA (formaldehyde). Prepared samples were incubated 15 min at RT. Following incubation, the 2.5 mL PBS was added to each sample and centrifuged. Then, supernatant was discarded, and cells were resuspended in 90% ice-cold methanol to perform permeabilisation and left for 1 h in ice. To remove methanol, cells were rinsed with excess PBS by centrifugation. Following centrifugation, the supernatant was discarded. Then, cells were resuspended in 100 µL of appropriate diluted (1:100 in PBS) antibody conjugate (p53 (7F5) Rabbit mAb – Alexa Fluor 488 Conjugate #5429 Cell Signalling Technology, Danvers, MA; NF-κB p65 (D14E12) XP Rabbit mAb – Alexa Fluor 647 Conjugate #8801 Cell Signalling Technology, Danvers, MA; mTOR (7C10) Rabbit mAB – Alexa Fluor 647 #5048 Cell Signalling Technology, Danvers, MA; FITC Anti-Bax antibody (T22-A) #ab139543, Abcam, Cambridge, UK) and incubated 1 h in the dark at RT. Afterwards, cells were washed by centrifugation in 2 mL of incubation buffer. Finally, supernatant was removed and 300 µL PBS was added to each sample and pipetted. The analysis was performed by flow cytometry (BD FACSCanto II, Becton Dickinson Biosciences Systems, San Jose, CA) using FACSDiva software ver. 6.1.3.
# ROS in MDA-MB-231 cells = assay: Total ROS activity, flow cytometry, MDA-MB-231; assay type: cell-based, human; conditions: for cells with ROS: 24 h
# Protocol: as §2
# MCF-7 spheroids = assay: 3D spheroid culture, MCF-7; assay type: cell-based, human
# Protocol: (§4) The 3D cell culture was carried out with 6-Well Bio-Assembler Kit in accordance with the manufacturer’s instructions (Greiner Bio-One GmbH, Frickenhausen, Germany). First, MCF-7 and MDA-MB-231 were cultured in 2D using procedure and supplied to 80% confluency and treated with nanoshuttle at concentration of 1 µL/10 000 cell and incubated overnight. Following incubation, the medium was removed, and the cells were detached by trypsin–EDTA solution and resuspended in DMEM. The cells were counted using Scepter 2.0 Handheld Automated Cell Counter (Merck, Darmstadt, Germany) and plated at the concentration 1 × 10^6 cells per well in six-well plate. Then, cells were gently tilted in the flask to evenly distribute the nanoparticle and incubated (37 °C, 5% CO2, 95–98% humidity) for 1 h with magnet on the top of the plate. The cells self-assemble to spheroids. The obtained 3D cell culture was incubated until analysis.
# (§5) The visualisation of the morphological changes in 3D cell culture of MCF-7 and MDA-MB-231 was evaluated using microscope (Nikon Eclipse Ti, Tokyo, Japan).
# (§6) The mean ± standard deviation (SD) for all data is presented. One-way and two-way analysis of variance (ANOVA) was conducted followed by Dunnett’s test. GraphPad 8.0.1 Prism software (GraphPad Software, San Diego, CA) was used for calculation. The analysis of spheroids area was carried out using ImageJ software from the NIH (Bethesda, MD).
# [7] = system: MCF-7 breast cancer cells; assay: Apoptosis, annexin V-FITC/PI flow cytometry, MCF-7; assay type: cell-based, human; conditions: 24 h
# Protocol: The analysis was performed using flow cytometry Apoptosis Detection Kit II (BD Biosciences, San Diego, CA) as described previously.
# p53 in MDA-MB-231 cells = assay: Anti-p53 antibody flow cytometry, MDA-MB-231; assay type: cell-based, human; conditions: MDA-MB-231, 0.25 µM and 0.5 µM, 24 h
# Protocol: as §3, with “The analysis was performed by flow cytometry (BD FACSCanto II, Becton Dickinson Biosciences Systems, San Jose, CA) using FACSDiva software ver. 6.1.3.” left out
# MDA-MB-231 spheroids = assay: 3D spheroid culture, MDA-MB-231; assay type: cell-based, human; conditions: 0.25 µM and 0.5 µM
# Protocol: as §4, §5, §6
# [8] = system: caspase 3/7 in MDA-MB-231 cells; assay: Activity of caspase 3/7, MDA-MB-231; assay type: cell-based, human; conditions: 24 h
# Protocol: as §1
# [9] = ratio of cytotoxicity, 3a vs 2a, 3b vs 2b
structure (smiles),measurement,setting,value
"Cc1nn(-c2ccc(S(=O)(=O)N[C@@H](CO)Cc3ccccc3)cc2)c2nn3nnnc3nc12 [Compound 3b, (R)-N-(1-hydroxy-3-phenylpropan-2-yl)-4-(7-methyl-5H-pyrazolo[4,3-e]tetrazolo[1,5-b][1,2,4]triazin-6-yl)benzenesulfonamide]",IC50 at 24 h,in vitro,2300 ± 40 nM
same,IC50,"[1]; Homo sapiens, MCF7, 24 h, read-out: Cytotoxicity IC50 MCF-7",250 ± 70 nM
same,"times stronger than the corresponding sulphonyl derivative (2a or 2b), MCF-7",[1]; [9],22 times
same,cells with active caspase 10,"[2]; MDA-MB-231, 0.25 µM",21.2 ± 1.4%
same,cells with active caspase 10,"[2]; MDA-MB-231, 0.5 µM",50.8 ± 3.8%
same,cells with active caspase 10,"[3]; MCF-7, 0.25 µM",12.9 ± 0.8%
same,cells with active caspase 10,"[3]; MCF-7, 0.5 µM",70.8 ± 1.1%
same,cells with active caspase 9,[4],55.9 ± 1.2%
same,effect on executive caspase 7 (in words),[5],increase in activity of executive caspase 7
same,percentage of active form of caspase 9,caspase 9 in MCF-7 cells,72.1 ± 2.3%
same,IC50,"[6]; Homo sapiens, MDA-MB-231, 24 h, read-out: Cytotoxicity IC50 MDA-MB-231",310 ± 140 nM
same,"times stronger than the corresponding sulphonyl derivative (2a or 2b), MDA-MB-231",[6]; [9],25 times
same,cells that generated ROS,"ROS in MCF-7 cells; MCF-7, 0.25 µM",19.8 ± 2.2%
same,increase of ROS level compared to control,"ROS in MCF-7 cells; MCF-7, 0.5 µM",12 times
same,cells that generated ROS,"ROS in MCF-7 cells; MCF-7, 0.5 µM",27.5 ± 1.3%
same,cells with active Bax,"Bax in MCF-7 cells; MCF-7, 0.25 µM",46.4 ± 6.6%
same,cells with active Bax,"Bax in MCF-7 cells; MCF-7, higher concentration (0.5 µM)",63.0 ± 1.6%
same,cells with ROS,"ROS in MDA-MB-231 cells; MDA-MB-231, 0.25 µM",7.0 ± 0.6%
same,increase of ROS level compared to control,"ROS in MDA-MB-231 cells; MDA-MB-231, 0.5 µM",four
same,cells with ROS,"ROS in MDA-MB-231 cells; MDA-MB-231, 0.5 µM",9.4 ± 0.7%
same,effect on spheroid formation (in words),MCF-7 spheroids; 0.25 µM and 0.5 µM,slower formation of spheroids compared to untreated cells
same,spheroids smaller compared to the control,"MCF-7 spheroids; 0.5 µM, 24 h",approximately 86.37 ± 7.7%
same,apoptotic cells,"[7]; MCF-7, 0.25 µM",50.6 ± 3.5%
same,early and late apoptotic cells,"[7]; MCF-7, 0.5 µM",98.9 ± 1.6%
same,effect on p53 (in words),p53 in MDA-MB-231 cells,activates p53
same,effect on spheroid formation (in words),MDA-MB-231 spheroids,slower formation of spheroids compared to untreated cells
same,cells with active executive caspases (3 and 7),"[8]; MDA-MB-231, 0.25 µM",23.8 ± 0.8%
same,cells with active executive caspases (3 and 7),"[8]; MDA-MB-231, 0.5 µM",68.4 ± 1.2%
